For 13 molecules, IC50 results are on record in patent US20240218022A1, “ANTI-VISTA MACROCYCLIC PEPTIDES AND COMPOSITIONS” (BRISTOL-MYERS SQUIBB COMPANY, priority 2022, published 2024).

For the test, the target named is T1, mouse VISTA (mVISTA) (Mus musculus, UniProt Q9D659).
T1 construct: expressed in transfected cells; host or cells: Human embryonic kidney 293T cells
T1 sequence (Q9D659 33-308): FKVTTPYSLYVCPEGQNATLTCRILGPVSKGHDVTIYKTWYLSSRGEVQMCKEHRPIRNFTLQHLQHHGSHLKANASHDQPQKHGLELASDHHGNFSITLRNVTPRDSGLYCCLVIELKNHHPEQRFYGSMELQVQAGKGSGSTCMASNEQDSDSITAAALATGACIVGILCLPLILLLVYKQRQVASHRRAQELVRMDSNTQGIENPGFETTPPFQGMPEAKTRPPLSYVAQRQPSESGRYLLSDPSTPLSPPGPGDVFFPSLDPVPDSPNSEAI
In words: Cell-Based Binding High-Content Assay For mVISTA (HC CBA mVISTA). Summed up:
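Read-out: Alexa 647–streptavidin signal imaged on fixed, Hoechst-stained mVISTA-293T cells, with IC50 taken from a four-parameter logistic curve. Compounds competed with 2 nM biotinylated peptide for 30 min at room temperature, tested under both no-wash and wash (1 h compound, media exchange, 1 h) formats.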

Where [1] appears, read: cell-based binding high-content assay, mVISTA, read-out: HC CBA miPr ISTA IC50.
The mark [2] stands for this setting: the 19th table, scaffold drawing 22, read-out: HC CBA mVISTA IC50.

SMILES strings stand for the structures. Where two headings read alike, the source gives them in different places. Starred links: 1 amine or outer side, 2 acyl side, 3 side chain; linkers in the order of their positions; H or OH if unused. Positions of bridges follow the written chain, without caps; N, C: chain ends. Non-standard residues stand in square brackets, D forms with d. Residues, ends and D or L forms follow the SMILES beside them. ξ: configuration not given here. Phe(3-Me) = Cc1cccc(C[C@H](N)C(=O)O)c1; Phe(4-Me) = Cc1ccc(C[C@H](N)C(=O)O)cc1; 2Nal = N[C@@H](Cc1ccc2ccccc2c1)C(=O)O; βAsp = O=C(O)[C@H](CC(=O)[*:2])N[*:1]; Ala(cPr) = N[C@@H](CC1CC1)C(=O)O; Cit = NC(=O)NCCC[C@H](N)C(=O)O; NMeL = CN[C@@H](CC(C)C)C(=O)O; Ahp(2) = CCCCC[C@H](N)C(=O)O; NMeNle = CCCC[C@H](NC)C(=O)O; Tle = CC(C)(C)[C@H](N)C(=O)O; NHexGly = CCCCCCNCC(=O)O; Nle = CCCC[C@H](N)C(=O)O; Orn = NCCC[C@H](N)C(=O)O; Aun = NCCCCCCCCCCC(=O)O; Dap = NC[C@H](N)C(=O)O; AEEA = NCCOCCOCC(=O)O; ξS = NC(CO)C(=O)O

Regarding `CCCCCCN1CC(=O)N[C@@H](Cc2ccc(O)cc2)C(=O)N[C@@H](CCCCC)C(=O)N[C@@H](CC(=O)O)C(=O)N[C@@H](CCCNC(=N)N)C(=O)N(C)[C@@H](CCCC)C(=O)N[C@@H](CCCCC)C(=O)N2CCC[C@H]2C(=O)N[C@@H](C(C)C)C(=O)N[C@@H](CC(=O)O)C(=O)N[C@H](C(=O)N[C@@H](CCC(=O)O)C(N)=O)CSCC(=O)N[C@@H](Cc2ccccc2)C(=O)N[C@@H](Cc2ccc(O)cc2)C(=O)N[C@@H](CC(=O)O)C1=O` [Example 1077] ({CH2CO}-FYD[NHexGly]Y[Ahp(2)]DR[NMeNle][Ahp(2)]PVDCE-NH2; thioether N-14), where the note is “293T cells expressing mouse VISTA, competition with biotinylated peptide (2 nM), read-out: CBA mVISTA IC50”, the IC50 (usually the concentration that inhibits the measured activity by half) was determined as 14.7 nM.
For the molecule `CCCCCCN1CC(=O)N[C@@H](Cc2ccc(O)cc2)C(=O)N[C@@H](CCCC)C(=O)N[C@@H](CC(N)=O)C(=O)N[C@@H](CCCN)C(=O)N(C)[C@@H](CCCC)C(=O)N[C@@H](CCCCC)C(=O)N2CCC[C@H]2C(=O)N[C@@H](C(C)(C)C)C(=O)N[C@@H](CC(=O)O)C(=O)N[C@H](C(=O)N[C@@H](CC(=O)O)C(N)=O)CSCC(=O)N[C@@H](Cc2ccccc2)C(=O)N[C@@H](Cc2c[nH]c3ccccc23)C(=O)N[C@@H](CC(=O)O)C1=O` [Example 1373] ({CH2CO}-FWD[NHexGly]Y[Nle]N[Orn][NMeNle][Ahp(2)]P[Tle]DCD-NH2; thioether N-14), the IC50 (read-out: HC CBA mVISTA IC50) is 14.8 nM.
On to `CCCCCCN1CC(=O)N[C@@H](Cc2ccc(O)cc2)C(=O)N[C@@H](CC(C)C)C(=O)NCC(=O)N[C@@H](CCCNC(=N)N)C(=O)N[C@@H](Cc2ccc(O)cc2)C(=O)N[C@@H](CCCCC)C(=O)N2CCC[C@H]2C(=O)N[C@@H](C(C)C)C(=O)N[C@@H](CC(=O)O)C(=O)N[C@H](C(=O)NCC(N)=O)CSCC(=O)N[C@@H](Cc2ccc3ccccc3c2)C(=O)N[C@@H](Cc2c[nH]c3ccccc23)C(=O)N[C@@H](CC(=O)O)C1=O` [compound 1264] ({CH2CO}-[2Nal]WD[NHexGly]YLGRY[Ahp(2)]PVDCG-NH2; thioether N-14), for which, under “cell-based binding high-content assay, mVISTA, the 15th table, read-out: HC CBA mVISTA IC50”, the IC50 came to 28.4 nM.
Take `CCCCCCN1CC(=O)N[C@@H](Cc2ccc(O)cc2)C(=O)N[C@@H](CC(C)C)C(=O)N[C@@H](CC(N)=O)C(=O)N[C@@H](CCCNC(=N)N)C(=O)N(C)[C@@H](CCCC)C(=O)N[C@@H](CCCCC)C(=O)N2CCC[C@H]2C(=O)N[C@@H](C(C)(C)C)C(=O)N[C@@H](CO)C(=O)N[C@H](C(=O)NCC(N)=O)CSCC(=O)N[C@@H](Cc2ccccc2)C(=O)N[C@@H](Cc2ccc(C)cc2)C(=O)N[C@@H](CC(=O)O)C1=O` [compound 1349] ({CH2CO}-F[Phe(4-Me)]D[NHexGly]YLNR[NMeNle][Ahp(2)]P[Tle]SCG-NH2; thioether N-14): where the note is “read-out: HC CBA mVISTA IC50”, the 50% inhibitory concentration (IC50) was found to be 43.6 nM.
Take `CCCCCCN1CC(=O)N[C@@H](Cc2ccc(O)cc2)C(=O)N[C@@H](CCCC)C(=O)N[C@@H](CC(N)=O)C(=O)N[C@@H](CCCNC(=N)N)C(=O)N[C@@H](CC(C)C)C(=O)N[C@@H](CCCCC)C(=O)N2CCC[C@H]2C(=O)N[C@@H](C(C)C)C(=O)N[C@@H](CC(=O)O)C(=O)N[C@H](C(=O)N[C@@H](CO)C(N)=O)CSCC(=O)N[C@@H](Cc2ccc3ccccc3c2)C(=O)N[C@@H](Cc2ccc(O)cc2)C(=O)N[C@@H](CC(=O)O)C1=O` [Ex 1315] ({CH2CO}-[2Nal]YD[NHexGly]Y[Nle]NRL[Ahp(2)]PVDCS-NH2; thioether N-14): the IC50 (cell-based binding high-content assay, mVISTA, the 16th table, read-out: HC CBA mVISTA IC50) is 37.1 nM.
Consider `CCCCCCN1CC(=O)N[C@@H](Cc2ccc(O)cc2)C(=O)N[C@@H](CCCC)C(=O)N[C@@H](CC(=O)O)C(=O)N[C@@H](CCCN)C(=O)N[C@@H](CC(C)C)C(=O)N[C@@H](CCCCC)C(=O)N2CCC[C@H]2C(=O)N[C@@H](C(C)C)C(=O)N[C@@H](CC(=O)O)C(=O)N[C@H](C(=O)NC(CO)C(N)=O)CSCC(=O)N[C@@H](Cc2ccccc2)C(=O)N[C@@H](Cc2cccc(C)c2)C(=O)N[C@@H](CC(=O)O)C1=O` (stereo partly shown) [compound 1331] ({CH2CO}-F[Phe(3-Me)]D[NHexGly]Y[Nle]D[Orn]L[Ahp(2)]PVDC[ξS]-NH2; thioether N-14), for which the IC50 (read-out: HC CBA mVISTA IC50) was 14.3 nM.
In the case of `CCCCCCN1CC(=O)N[C@@H](Cc2ccc(O)cc2)C(=O)N[C@@H](CC(C)C)C(=O)N[C@@H](CC(N)=O)C(=O)N[C@@H](CCCNC(=N)N)C(=O)N(C)[C@@H](CC(C)C)C(=O)N[C@@H](CCCCC)C(=O)N2CCC[C@H]2C(=O)N[C@@H](C(C)(C)C)C(=O)N[C@@H](CC(=O)O)C(=O)N[C@H](C(=O)N[C@@H](CC(=O)NCCOCCOCC(=O)N[C@@H](CC(=O)O)C(=O)NCCOCCOCC(=O)NCCCCCCCCCCC(=O)O)C(=O)O)CSCC(=O)N[C@@H](Cc2ccccc2)C(=O)N[C@@H](Cc2ccc(O)cc2)C(=O)N[C@@H](CC(=O)O)C1=O` [compound 2026] ({CH2CO}-FYD[NHexGly]YLNR[NMeL][Ahp(2)]P[Tle]DC[βAsp][AEEA]D[AEEA][Aun]-OH; thioether N-14), the IC50 under setting [1] was determined as 17.5 nM.
On to `CCCCCCN1CC(=O)N[C@@H](Cc2ccc(O)cc2)C(=O)N[C@@H](CCCC)C(=O)N[C@@H](CC(N)=O)C(=O)N[C@@H](CCCNC(N)=O)C(=O)N[C@@H](CC(C)C)C(=O)N[C@@H](CCCCC)C(=O)N2CCC[C@H]2C(=O)N[C@@H](C(C)C)C(=O)N[C@@H](CC(=O)O)C(=O)N[C@H](C(=O)NCC(=O)O)CSCC(=O)N[C@@H](Cc2cccc(C)c2)C(=O)N[C@@H](Cc2c[nH]c3ccccc23)C(=O)N[C@@H](CC(=O)O)C1=O` [compound 1423] ({CH2CO}-[Phe(3-Me)]WD[NHexGly]Y[Nle]N[Cit]L[Ahp(2)]PVDCG-OH; thioether N-14), for which the IC50 under setting [2] came out at 16.7 nM.
With `CCCCCCN1CC(=O)N[C@@H](Cc2ccc(O)cc2)C(=O)N[C@@H](C(C)C)C(=O)NCC(=O)N[C@@H](CCCNC(=N)N)C(=O)N[C@@H](CC(C)C)C(=O)N[C@@H](CCCCC)C(=O)N2CCC[C@H]2C(=O)N[C@@H](C(C)C)C(=O)N[C@@H](CC(=O)O)C(=O)N[C@H](C(=O)NCC(N)=O)CSCC(=O)N[C@@H](Cc2ccccc2)C(=O)N[C@@H](Cc2ccc3ccccc3c2)C(=O)N[C@@H](CC(=O)O)C1=O` [compound 1324] ({CH2CO}-F[2Nal]D[NHexGly]YVGRL[Ahp(2)]PVDCG-NH2; thioether N-14), for the setting “read-out: HC CBA mVISTA IC50”, the 50% inhibitory concentration (IC50) came to 48.2 nM.
For `CCCCCCN1CC(=O)N[C@@H](Cc2ccc(O)cc2)C(=O)N[C@@H](CCCC)C(=O)N[C@@H](CC(N)=O)C(=O)N[C@@H](CCCNC(N)=O)C(=O)N(C)[C@@H](CCCC)C(=O)N[C@@H](CCCCC)C(=O)N2CCC[C@H]2C(=O)N[C@@H](C(C)C)C(=O)N[C@@H](CO)C(=O)N[C@H](C(=O)NCCOCCOCC(=O)N[C@@H](CC(=O)O)C(=O)NCCOCCOCC(=O)NCCCCCCCCCCC(=O)O)CSCC(=O)N[C@@H](Cc2ccc3ccccc3c2)C(=O)N[C@@H](Cc2ccc(O)cc2)C(=O)N[C@@H](CC(=O)O)C1=O` [compound 2319] ({CH2CO}-[2Nal]YD[NHexGly]Y[Nle]N[Cit][NMeNle][Ahp(2)]PVSC[AEEA]D[AEEA][Aun]-OH; thioether N-14), the IC50 (cell-based binding high-content assay, read-out: HC CBA miPrISTA IC50) is 25.1 nM.
On to `CCCCCCN1CC(=O)N[C@@H](Cc2ccc(O)cc2)C(=O)N[C@@H](C(C)C)C(=O)NCC(=O)N[C@@H](CCCNC(=N)N)C(=O)N[C@@H](CC(C)C)C(=O)N[C@@H](CCCCC)C(=O)N2CCC[C@H]2C(=O)N[C@@H](C(C)C)C(=O)N[C@@H](CC(=O)O)C(=O)N[C@H](C(=O)N[C@@H](CO)C(=O)N[C@@H](CN)C(=O)N[C@@H](CCC(N)=O)C(=O)O)CSCC(=O)N[C@@H](Cc2ccc3ccccc3c2)C(=O)N[C@@H](Cc2ccc(O)cc2)C(=O)N[C@@H](CC(=O)O)C1=O` [Example 1162] ({CH2CO}-[2Nal]YD[NHexGly]YVGRL[Ahp(2)]PVDCS[Dap]Q-OH; thioether N-14), for which the IC50 (293T cells expressing mouse VISTA, competition with biotinylated peptide (2 nM), read-out: HC CBA mVISTA IC50) was found to be 35.3 nM.
With `CCCCCCN1CC(=O)N[C@@H](Cc2ccc(O)cc2)C(=O)N[C@@H](CC2CC2)C(=O)N[C@@H](CC(N)=O)C(=O)N[C@@H](CCCN)C(=O)N(C)[C@@H](CCCC)C(=O)N[C@@H](CCCCC)C(=O)N2CCC[C@H]2C(=O)N[C@@H](C(C)(C)C)C(=O)N[C@@H](CO)C(=O)N[C@H](C(=O)N[C@@H](CC(=O)NCCOCCOCC(=O)N[C@@H](CC(=O)O)C(=O)NCCOCCOCC(=O)NCCCCCCCCCCC(=O)O)C(=O)O)CSCC(=O)N[C@@H](Cc2ccccc2)C(=O)N[C@@H](Cc2ccc(O)cc2)C(=O)N[C@@H](CC(=O)O)C1=O` [compound 2062] ({CH2CO}-FYD[NHexGly]Y[Ala(cPr)]N[Orn][NMeNle][Ahp(2)]P[Tle]SC[βAsp][AEEA]D[AEEA][Aun]-OH; thioether N-14), the IC50 under setting [1] came to 49.2 nM.
On to `CCCCCCN1CC(=O)N[C@@H](Cc2ccc(O)cc2)C(=O)N[C@@H](CCCC)C(=O)N[C@@H](CC(=O)O)C(=O)N[C@@H](CCCNC(=N)N)C(=O)N[C@@H](CC(C)C)C(=O)N[C@@H](CCCCC)C(=O)N2CCC[C@H]2C(=O)N[C@@H](C(C)C)C(=O)N[C@@H](CC(=O)O)C(=O)N[C@H](C(=O)N[C@@H](CO)C(N)=O)CSCC(=O)N[C@@H](Cc2cccc(C)c2)C(=O)N[C@@H](Cc2ccc(O)cc2)C(=O)N[C@@H](CC(=O)O)C1=O` [compound 1437] ({CH2CO}-[Phe(3-Me)]YD[NHexGly]Y[Nle]DRL[Ahp(2)]PVDCS-NH2; thioether N-14), for which, under setting [2], the IC50 worked out at 18.2 nM.
